Columns and labels:
[1] = test system: phospho-ERK in A549 (G12S) cells; assay: Inhibition of KRas-mediated phosphorylation of ERK (in-cell western); type: cell-based; details: Homo sapiens, 3 hours compound, phospho-ERK normalized to GAPDH
Method in brief: (§1)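 After a 3-hour incubation with diluted compound in 0.5% DMSO, cells are fixed, permeabilized and stained overnight at 4° C for phosphorylated ERK and GAPDH.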

[2] = test system: phospho-ERK in AsPC-1 (G12D) cells; assay: as above; type: cell-based; details: Homo sapiens, ASPC1, 3 h, 3 hours compound, phospho-ERK normalized to GAPDH
Method in brief: as §1

[3] = test system: phospho-ERK in HCT116 (G13D) cells; assay: as above; type: cell-based; details: Homo sapiens, HCT-116, 3 hours compound, phospho-ERK normalized to GAPDH
Method in brief: as §1

[4] = test system: phospho-ERK in MKN1 (WTdep) cells; assay: as above; type: cell-based; details: Homo sapiens, MKN-1, 3 hours compound, phospho-ERK normalized to GAPDH
Method in brief: as §1

[5] = test system: phospho-ERK in NCI-H358 (G12C) cells; assay: as above; type: cell-based; details: Homo sapiens, 3 hours compound, phospho-ERK normalized to GAPDH
Method in brief: as §1

[6] = test system: phospho-ERK in NCI-H460 (Q61H) cells; assay: as above; type: cell-based; details: Homo sapiens, NCI-H460, 3 h, 3 hours compound, phospho-ERK normalized to GAPDH
Method in brief: as §1

[7] = test system: phospho-ERK in NCI-H727 (G12V) cells; assay: as above; type: cell-based; details: Homo sapiens, NCI-H727, 3 h, 3 hours compound, phospho-ERK normalized to GAPDH
Method in brief: as §1

[8] = test system: phospho-ERK in PSN-1 (G12R) cells; assay: as above; type: cell-based; details: Homo sapiens, PSN1, 3 hours compound, phospho-ERK normalized to GAPDH
Method in brief: as §1

KRas G12D = KRas G12D (Homo sapiens, UniProt P01116, G12D); assay: biochemical;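 also: TR-FRET displacement binding assay on KRas, read after a one-hour incubation at room temperature, IC50 fitted from percent-of-control values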
Sequence of KRas G12D (P01116 1-169 isoform P01116-2 G12D): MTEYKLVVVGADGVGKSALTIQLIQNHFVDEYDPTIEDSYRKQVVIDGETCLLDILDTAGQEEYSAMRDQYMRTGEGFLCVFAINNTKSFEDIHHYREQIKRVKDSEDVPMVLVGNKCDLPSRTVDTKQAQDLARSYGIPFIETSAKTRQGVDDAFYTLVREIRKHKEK
Description: (§2) The ability of a compound to bind to KRas was measured using a TR-FRET displacement assay. […] After a 60-minute incubation at room temperature, the reaction was measured using a BMG LABTECH CLARIO star Plus via TR-FRET. […] The POC values were fit to a 4-parameter IC50 equation and the IC50 value reported.

KRas G12V = KRas G12V (Homo sapiens, UniProt P01116, G12V); assay: biochemical;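 also: KRas binding measured by TR-FRET displacement at room temperature, IC50 fitted from percent of control values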
Sequence of KRas G12V (P01116 1-169 isoform P01116-2 G12V): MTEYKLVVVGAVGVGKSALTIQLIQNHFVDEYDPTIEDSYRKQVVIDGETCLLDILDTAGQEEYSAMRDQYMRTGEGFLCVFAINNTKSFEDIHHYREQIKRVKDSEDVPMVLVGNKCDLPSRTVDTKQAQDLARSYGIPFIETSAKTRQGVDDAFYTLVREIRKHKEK
Description: as §2

KRas G12R = KRas G12R (Homo sapiens, UniProt P01116, G12R); assay: biochemical;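 also: TR-FRET displacement assay of compound binding to KRas, read after one hour at room temperature, potency from a four-parameter fit of percent-of-control values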
Sequence of KRas G12R (P01116 1-169 isoform P01116-2 G12R): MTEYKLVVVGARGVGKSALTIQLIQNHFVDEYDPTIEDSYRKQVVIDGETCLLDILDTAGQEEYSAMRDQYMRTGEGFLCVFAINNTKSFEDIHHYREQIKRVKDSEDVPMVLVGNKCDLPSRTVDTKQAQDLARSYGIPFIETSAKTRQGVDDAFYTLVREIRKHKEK
Description: as §2

pERK in MKN1 cells = assay: Inhibition of KRas phosphorylation of ERK (Cisbio HTRF pERK assay); details: Homo sapiens, MKN-1, 3 h, read-out: Inhibition (HTRF IC50) of KRas-mediated Phosphorylation of ERK, MKN1
pERK in PSN1 cells = assay: as above; details: Homo sapiens, PSN1, 3 h, read-out: Inhibition (HTRF IC50) of KRas-mediated Phosphorylation of ERK, PSN1
pERK in ASPC1 cells = assay: as above; details: Homo sapiens, ASPC1, read-out: Inhibition (HTRF IC50) of KRas-mediated Phosphorylation of ERK, AsPC-1
pERK in H727 cells = assay: as above; details: Homo sapiens, NCI-H727, read-out: Inhibition (HTRF IC50) of KRas-mediated Phosphorylation of ERK, H727
pERK in A549 cells = assay: as above; details: Homo sapiens, A549, read-out: Inhibition (HTRF IC50) of KRas-mediated Phosphorylation of ERK, A549
Description: To harvest cells from flask using 0.05% Trypsin/EDTA solution. Add 10 mL of media to stop trypsinizing. Pipette the cells into a conical bottom 50 mL centrifuge tube and centrifuge 5 min×1000 rpm. • 2. Re-suspend the cell pellet in media, take a cell count, and then adjust the cell density using fresh media. • 3. Seed 6,000 cells into cell culture plate with 50 μL media. […] Incubate cell plate overnight in a 37° C., 5% CO2 incubator. • Compound titrations • 1. Use Tecan to complete the compound addition. Compounds start from 10 uM top, 3-fold dilution, and 10 doses. The final DMSO concentration is 0.8%. Dispensed 0.2 uM Trametinib as Min control. • 2. Incubate cell plate for 3 hrs in the incubator. • Detection with cisbio pERK HTRF kit • 1. […] At the end of the compound treatment, flick-off the media. • 3. Add 35 μL of lysis buffer per well using a Multidrop Combi. Then place on a plate agitator shaking at 300 rpm at 4° C. for 40 mins. • 4. Make up the HTRF antibody buffer. For each assay plate, mix 50 μL of d2-conjugate antibody with 950 μL of detection buffer. Similarly, mix 50 μL of Cryptate antibody with 950 μL of detection buffer. Then mix the two diluted antibodies together. • 5. Dispense 3.4 μL the antibody buffer to wells of an empty assay plate. Seal the plate and centrifuge plate 30 sec×1000 rpm. • 6. At the end of the 4° C. lysis, centrifuge the lysate plates 3 mins×1500 rpm. • 7. Use the Bravo to transfer 13.6 μL of lysate from cell culture plate to assay plate.
Then incubate assay plate for 2 hrs at room temperature. […] At the end of incubation, read plate on the Envision after centrifuging plate 30 sec× • 1000 rpm.

pERK in H460 cells = assay: as above; details: Homo sapiens, NCI-H460, read-out: Inhibition (HTRF IC50) of KRas-mediated Phosphorylation of ERK, H460
pERK in HCT116 cells = assay: as above; details: Homo sapiens, HCT-116, read-out: Inhibition (HTRF IC50) of KRas-mediated Phosphorylation of ERK, HCT116
pERK in H358 cells = assay: as above; details: Homo sapiens, NCI-H358, read-out: Inhibition (HTRF IC50) of KRas-mediated Phosphorylation of ERK, H358

IC50 (KRas G12D) | IC50 (KRas G12V) | IC50 (KRas G12R) | IC50 (pERK in MKN1 cells) | IC50 (pERK in PSN1 cells) | IC50 (pERK in ASPC1 cells) | IC50 (pERK in H727 cells) | IC50 (pERK in A549 cells) | IC50 (pERK in H460 cells) | IC50 (pERK in HCT116 cells) | IC50 (pERK in H358 cells) | SMILES | IC50 [1] | IC50 [2] | IC50 [3] | IC50 [4] | IC50 [5] | IC50 [6] | IC50 [7] | IC50 [8]
≤ 2 nM | ≤ 2 nM | ≤ 2 nM | – | – | 66 nM | 12 nM | – | 167 nM | 115 nM | – | C#Cc1c(F)ccc2cc(O)cc(-c3ncc4c(NCc5c[nH]c6ncccc56)nc(OC[C@@]56CCCN5C[C@H](F)C6)nc4c3F)c12 [Example 150, 4-(4-(((1H-pyrrolo[2,3-b]pyridin-3-yl)methyl)amino)-8-fluoro-2-(((2R,7aS)-2-fluorohexahydro-1H-pyrrolizin-7a-yl)methoxy)pyrido[4,3-d]pyrimidin-7-yl)-5-ethynyl-6-fluoronaphthalen-2-ol] | 45 nM | 435 nM | 996 nM | 13 nM | 4 nM | 362 nM | 626 nM | ≥ 10000 nM
≤ 2 nM | ≤ 2 nM | ≤ 2 nM | – | – | 125 nM | 72 nM | – | 143 nM | 349 nM | – | CCc1c(F)ccc2cc(O)cc(-c3ncc4c(NCc5ccc6nccn6c5)nc(OC[C@@]56CCCN5C[C@H](F)C6)nc4c3F)c12 [Example 156, 5-ethyl-6-fluoro-4-(8-fluoro-2-(((2R,7aS)-2-fluorohexahydro-1H-pyrrolizin-7a-yl)methoxy)-4-((imidazo[1,2-a]pyridin-6-ylmethyl)amino)pyrido[4,3-d]pyrimidin-7-yl)naphthalen-2-ol] | 33 nM | 335 nM | 323 nM | 14 nM | 10 nM | 141 nM | 189 nM | ≥ 10000 nM

Continued, compound first:

SMILES | IC50 (KRas G12D) | IC50 (KRas G12V) | IC50 (KRas G12R) | IC50 (pERK in MKN1 cells) | IC50 (pERK in PSN1 cells) | IC50 (pERK in ASPC1 cells) | IC50 (pERK in H727 cells) | IC50 (pERK in A549 cells) | IC50 (pERK in H460 cells) | IC50 (pERK in HCT116 cells) | IC50 (pERK in H358 cells) | IC50 [1] | IC50 [2] | IC50 [3] | IC50 [4] | IC50 [5] | IC50 [6] | IC50 [7] | IC50 [8]
CCc1c(F)ccc2cc(O)cc(-c3ncc4c(N5CC6CC(O)C(C6)C5)nc(OC[C@@]56CCCN5C[C@H](F)C6)nc4c3F)c12 (some centres unmarked) [Example 82] | ≤ 2 nM | ≤ 2 nM | ≤ 2 nM | 6 nM | 2320 nM | 15 nM | 16 nM | 15 nM | 22 nM | 106 nM | 10 nM | 25 nM | 18 nM | 216 nM | 10 nM | 3 nM | 180 nM | 65 nM | 1740 nM
C#Cc1c(F)ccc2cc(O)cc(-c3ncc4c(N5CCCC6(CC(=O)N6)C5)nc(OC[C@@]56CCCN5C[C@H](F)C6)nc4c3F)c12 (some centres unmarked) [Example 148] | 3 nM | ≤ 2 nM | ≤ 2 nM | – | – | 59 nM | 110 nM | – | 132 nM | 2210 nM | – | 550 nM | 105 nM | ≥ 10000 nM | 76 nM | 15 nM | 68 nM | 260 nM | 3780 nM
C#Cc1c(F)ccc2cc(O)cc(-c3ncc4c(N5CCOCC(C)(O)C5)nc(OC[C@@]56CCCN5C[C@H](F)C6)nc4c3F)c12 (some centres unmarked) [Example 149] | 4 nM | ≤ 2 nM | 3 nM | – | – | 25 nM | 111 nM | 290 nM | 180 nM | 276 nM | – | 83 nM | 9 nM | 292 nM | 16 nM | 10 nM | 71 nM | 206 nM | 1760 nM
